Assay results: PubChem BioAssay AID1963844 (Molecular Pharmacology Branch, DTP, NCI, 2024)

System: 422866-222-R5-J1-PDC complex spheroid viability
Assay: Anticancer human tumor 422866-222-R5-J1-PDC patient-derived pancreatic adenocarcinoma cell line growth inhibition [POLQ]
Details: for IC50: curve of first compound; for viability, T/C: stronger effect = lower value
Outline: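 Three-cell-type spheroids modelling solid tumor plus stroma served as the readout system; POL inhibitors were tested individually and in combination, concentration ranges set by clinical Cmax where known.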
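Further: spheroids exposed to compounds for one week before readout.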
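Wherever viability, T/C is given: percent of DMSO vehicle wells luminescence so 100% = untreated viability.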

CC1COCCN1c1cc(C2(O)CC3CCC(C2)O3)c2cnn(-c3ccn[nH]3)c2n1 (configuration not stated) + COC1C(OC(N)=O)C(O)C(Oc2ccc3c(O)c(NC(=O)c4ccc(O)c(CC=C(C)C)c4)c(=O)oc3c2C)OC1(C)C
IC50 (second compound 0.0316 µM): > 10 µM | IC50 (second compound 0.1 µM): > 10 µM | IC50 (second compound 0.316 µM): < 0.0316 µM | IC50 (second compound 1 µM): > 10 µM | IC50 (second compound 3.16 µM): > 10 µM | IC50 (second compound 10 µM): > 10 µM | viability, T/C (second compound 0.0316 µM, first compound 0.0316 µM): 71.4% | viability, T/C (second compound 0.0316 µM, first compound 0.1 µM): 47.9% | viability, T/C (second compound 0.0316 µM, first compound 0.316 µM): 45.8% | viability, T/C (second compound 0.0316 µM, first compound 1 µM): 83.7% | viability, T/C (second compound 0.0316 µM, first compound 3.16 µM): 70.7% | viability, T/C (second compound 0.0316 µM, first compound 10 µM): 79.8% | viability, T/C (second compound 0.1 µM, first compound 0.0316 µM): 73.5% | viability, T/C (second compound 0.1 µM, first compound 0.1 µM): 47% | viability, T/C (second compound 0.1 µM, first compound 0.316 µM): 41.9% | viability, T/C (second compound 0.1 µM, first compound 1 µM): 65.3% | viability, T/C (second compound 0.1 µM, first compound 3.16 µM): 76.8% | viability, T/C (second compound 0.1 µM, first compound 10 µM): 66.4% | viability, T/C (second compound 0.316 µM, first compound 0.0316 µM): 72.9% | viability, T/C (second compound 0.316 µM, first compound 0.1 µM): 36.2% | viability, T/C (second compound 0.316 µM, first compound 0.316 µM): 37% | viability, T/C (second compound 0.316 µM, first compound 1 µM): 77.8% | viability, T/C (second compound 0.316 µM, first compound 3.16 µM): 71.5% | viability, T/C (second compound 0.316 µM, first compound 10 µM): 71.7% | viability, T/C (second compound 1 µM, first compound 0.0316 µM): 75.6% | viability, T/C (second compound 1 µM, first compound 0.1 µM): 45.3% | viability, T/C (second compound 1 µM, first compound 0.316 µM): 47.8% | viability, T/C (second compound 1 µM, first compound 1 µM): 77.7% | viability, T/C (second compound 1 µM, first compound 3.16 µM): 63.4% | viability, T/C (second compound 1 µM, first compound 10 µM): 77.7% | viability, T/C (second compound 3.16 µM, first compound 0.0316 µM): 84.3% | viability, T/C (second compound 3.16 µM, first compound 0.1 µM): 44.4% | viability, T/C (second compound 3.16 µM, first compound 0.316 µM): 48% | viability, T/C (second compound 3.16 µM, first compound 1 µM): 75.2% | viability, T/C (second compound 3.16 µM, first compound 3.16 µM): 67.5% | viability, T/C (second compound 3.16 µM, first compound 10 µM): 71.1% | viability, T/C (second compound 10 µM, first compound 0.0316 µM): 79.1% | viability, T/C (second compound 10 µM, first compound 0.1 µM): 52.7% | viability, T/C (second compound 10 µM, first compound 0.316 µM): 40.7% | viability, T/C (second compound 10 µM, first compound 1 µM): 82.9% | viability, T/C (second compound 10 µM, first compound 3.16 µM): 75.2% | viability, T/C (second compound 10 µM, first compound 10 µM): 65.6%
